Columns and labels:
IL-2Rαβγ = biological target: T1, IL-2Rαβγ (Homo sapiens, UniProt P01589+P14784+P31785); assay: U2OS cell-based assay kit for IL-2Rαβγ binding (DiscoverX)
T1 construct: host or cells: U2OS
T1 sequence (P01589 22-272): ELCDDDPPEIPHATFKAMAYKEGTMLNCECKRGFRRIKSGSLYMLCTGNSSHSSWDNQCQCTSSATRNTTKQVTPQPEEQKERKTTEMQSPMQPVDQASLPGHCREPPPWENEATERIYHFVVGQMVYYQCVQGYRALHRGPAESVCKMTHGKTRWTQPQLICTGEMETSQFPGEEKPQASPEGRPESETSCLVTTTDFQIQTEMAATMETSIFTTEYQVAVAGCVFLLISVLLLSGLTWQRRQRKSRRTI
T1 sequence (P14784 27-551): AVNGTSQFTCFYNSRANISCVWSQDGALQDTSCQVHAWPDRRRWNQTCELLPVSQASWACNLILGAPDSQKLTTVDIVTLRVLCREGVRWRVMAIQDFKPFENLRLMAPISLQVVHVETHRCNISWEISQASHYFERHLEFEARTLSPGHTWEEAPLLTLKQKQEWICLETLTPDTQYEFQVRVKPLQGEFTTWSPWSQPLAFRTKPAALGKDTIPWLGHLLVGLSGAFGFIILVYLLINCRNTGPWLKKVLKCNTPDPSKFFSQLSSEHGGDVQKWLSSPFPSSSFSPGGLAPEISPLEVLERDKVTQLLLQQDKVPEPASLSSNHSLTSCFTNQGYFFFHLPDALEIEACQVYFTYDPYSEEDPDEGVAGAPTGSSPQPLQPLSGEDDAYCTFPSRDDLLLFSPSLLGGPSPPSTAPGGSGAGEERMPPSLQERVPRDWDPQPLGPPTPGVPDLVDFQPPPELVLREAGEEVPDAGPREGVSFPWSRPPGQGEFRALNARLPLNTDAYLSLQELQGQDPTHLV
T1 sequence (P31785 23-369): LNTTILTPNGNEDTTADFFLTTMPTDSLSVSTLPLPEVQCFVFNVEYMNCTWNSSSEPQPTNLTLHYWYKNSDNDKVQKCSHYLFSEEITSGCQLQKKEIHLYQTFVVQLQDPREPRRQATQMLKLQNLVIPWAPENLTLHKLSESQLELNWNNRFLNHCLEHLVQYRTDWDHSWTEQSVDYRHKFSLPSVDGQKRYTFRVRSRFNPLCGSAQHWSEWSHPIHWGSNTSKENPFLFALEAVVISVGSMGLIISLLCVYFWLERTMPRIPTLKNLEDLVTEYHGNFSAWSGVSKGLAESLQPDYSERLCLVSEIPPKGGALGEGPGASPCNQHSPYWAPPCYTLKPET
Description: (§1) IL-2[N88R,C125S] was prepared by expression in HEK cells. Cell-based receptor binding assays were performed to evaluate the activity of the mutein against the high-affinity αβγ trimeric (Treg) and intermediate affinity βγ dimeric (Teff) forms of the IL-2 receptor (Table 1). The mutein binds only 6-fold poorer than IL-2 to the IL-2Rαβγ but about 900-fold poorer to the IL-2Rβγ.
A U2OS cell-based assay kit for IL-2Rαβγ binding was performed according the manufacturer's instructions (DiscoverX, Part #93-1003E3CP0). Cells were plated at 100 μL (˜10,000 cells/well) in 96 well assay plates and grown for 24 hours at 37° C., 5% CO2. Cells were then treated for 6 hours at 37° C., 5% CO2 with dilution series of either WT IL-2, IL-2 N88R, C125S, or IL-2 N88R, C125S released from microspheres at pH 9.4. Eleven WT IL-2 concentrations were assayed between 2 pg/mL-100 ng/mL (0.1 pM-6 nM). Eleven IL-2 N88R, C125S and released IL-2 N88R, C125S concentrations were assayed between 200 pg/mL-10 μg/mL ([…]-600 nM). Treated cells were incubated with chemiluminescent substrate for 1 hour at ambient temperature in the dark, then luminescence was read with a Spectramax i3 plate reader with 250 ms integration time.

IL-2Rβγ = biological target: T2, IL-2Rβγ (Homo sapiens, UniProt P14784+P31785); assay: U2OS cell-based assay kit for IL-2Rβγ binding (DiscoverX); settings: mutein vs WT IL-2
T2 construct: host or cells: U2OS
T2 sequence (P14784 27-551): T1 sequence (P14784 27-551)
T2 sequence (P31785 23-369): T1 sequence (P31785 23-369)
Description: as §1
A U2OS cell-based assay kit for IL-2Rβγ binding was performed according the manufacturer's instructions (DiscoverX, Part #93-0998E3CP5). Cells were plated at 50 μL (˜5,000 cells/well) in 96 well assay plates and grown for 48 hours at 37° C., 5% CO2. Cells were then treated for 6 hours at 37° C., 5% CO2 with dilution series of either WT IL-2, IL-2 N88R, C125S, or IL-2 N88R, C125S released from microspheres at pH 9.4. Eleven WT IL-2 concentrations were assayed between 17 pg/mL-1 μg/mL (1 pM-61 nM). Eleven IL-2 N88R, C125S concentrations were assayed between 1.7 ng/mL-100 μg/mL ([…]-6 μM). Eleven released remnant IL-2 N88R, C125S concentrations were assayed between 170 pg/mL-10 μg/mL ([…]-600 nM). Treated cells were incubated with chemiluminescent substrate for 1 hour at ambient temperature in the dark, then luminescence was read with a Spectramax i3 plate reader with 250 ms integration time.

[1] = test system: T-cells in the spleen and islets; assay: Pharmacodynamics of IL2 and IL2[N88R,C125S] in NOD mice (flow cytometry of spleen and islets); format: in vivo; settings: daily injections 25,000 units for five days
Description: Mice were sacrificed 2 hours after the last injection and the spleen and pancreas were harvested for flow cytometry analysis to measure changes in total number of T-cells and their differentiation in the spleen and islets.

[2] = test system: CD8+ memory T cells and NK cells in PBMCs; assay: Pharmacodynamics of [aminopropyl]-RLI released from microsphere conjugate; format: in vivo, C57Black mice
Description: The pharmacodynamics of the MS-RLI conjugate (34 μg, 1.5 nmol) was compared to that of empty MSs, and free RLI (2.5 μg, QDx4) in C57Black mice (n=5/group). Blood draws were taken over 13 days and the PBMCs surface stained using general laboratory procedures. Fixation and intracellular staining followed protocols from the eBioscience Foxp3/Transcription Factor Staining Buffer Set (ThermoFisher Scientific). Commercial antibodies used were against NK1.1, CD3, CD8, CD19, CD44 and Ki-67 expressing cells. Stained single cell suspension were analyzed using a LSRII flow cytometer (BD Biosciences) and analyzed using FlowJo cytometry analysis software (TreeStar, Ashland, Oreg.). Cell populations of particular interest were CD8+ memory T cells (CD44^hiCD8+), natural killer (CD3-NK1.1+) cells, proliferating CD8+ memory T cells (CD44^hiCD8+Ki-67+), and proliferating natural killer (CD3-NK1.1+Ki-67+) cells.

[3] = in vivo; cited from earlier work

Row | Fold-change βγ EC50 vs αβγ EC50 (selectivity for IL-2Rαβγ vs IL-2Rβγ) (IL-2Rαβγ) | Fold-change of βγ EC50 vs WT IL-2 (fold poorer binding) (IL-2Rβγ) | Substance | effect on CD4+ and CD8+ effector/memory T-cells in the spleen [1] | effect on the T-cells in the islets compared to PBS vehicle [1] | day of return of CD44hiCD8+ T cells to baseline levels ([2]; 2.5 μg QDx4) [days] | fold increase in the percentage of NK cells in the PBMCs ([2]; MS-RLI 34 μg single, free RLI 2.5 μg QDx4) [fold] | time post treatment at which increase in CD44hiCD8+ T cells was noticeable ([2]; MS-RLI 34 μg single, native RLI 2.5 μg QDx4) [days] | half-life of free RLI [3] [h]
1 | over 3,000 fold | about 900 fold | IL-2 N88R, C125S: IL-2 mutein, SEQ ID No: 3, prepared by expression in HEK cells | little to no effect | little to no effect | – | – | – | –
2 | – | – | RLI: receptor-linked interleukin: fusion protein comprising IL-15 and the sushi-domain of the receptor α-subunit, SEQ ID No: 16 | – | – | ≤ 7 | ~4 | 5 | 3
